Measured values published in patent US20040229336A1, “Method for in vitro culture of viruses of the togaviridae and flaviviridae families and uses” (Bio Merieux, priority 1999, published 2004).

Legend:
HCV = assay: Observation in patients infected both with HIV and with HCV taking HIV protease inhibitors; format: in vivo, human
Excerpt: For this reason, it is advantageous to add to the method of the invention at least one apoptosis-modulating agent.

hepatitis C virus = assay: Infection of PLC/PRF/5 cells with HCV-positive serum or LVP fractions, HCV genome in culture supernatants by semi-nested RT-PCR; format: cell-based, human
Procedure: The culture medium used is DMEM medium (marketed by Gibco BRL) supplemented with: 1 mM of sodium pyruvate (Gibco), 1% of nonessential amino acids (Boehringer Mannheim), 2 mM of glutamine (Gibco BRL), 200 U/ml of penicillin (bioMérieux), […] of streptomycin (bioMérieux) and 10% of calf serum (Boehringer).
The cells originate from the PLC/PRF/5 cell line (Alexander cells) (ATCC reference: CRL 8024), which is a line established from a human hepatocarcinoma. This line, which has integrated a defective hepatitis B genome, secretes the HBs antigen of the hepatitis B virus but no infectious virus. The cells are cultured in the complete DMEM medium (Gibco-BRL) supplemented with 10% of foetal calf serum, mentioned above. The cells are washed with PBS (Gibco-BRL) preheated to 37° C. 1 ml of DMEM supplemented with 0.2% of BSA (Sigma) and 50 μg/ml of lipoproteins originating from each fraction or 100 μl of serum filtered over a 0.45μ membrane are added. Simultaneously, a solution of oleic acid in isopropanol, prepared beforehand (100 mM), is added in a concentration range of 0.1 to 0.8 mM. The cells are then subjected to incubation for 3 hours at 37° C. under a 5% CO2 atmosphere. The medium is then replaced with complete DMEM medium supplemented with 10% of foetal calf serum. The cells are returned to the incubator under the conditions described above. […]

LSR receptor = molecular target: T1, LSR receptor (Homo sapiens, UniProt Q86X29); assay: Kinetics of attachment of the LVPs to the LSR receptor of hepatocytes (PLC/PRF/5 cells), quantitative RT-PCR of HCV RNA; format: cell-based; conditions: 0.5 mM oleate vs without oleate, +4° C., 1 to 9 hours
T1 construct: endogenous in cells; host or cells: PLC/PRF/5 human hepatocarcinoma cells
T1 sequence (Q86X29 1-649): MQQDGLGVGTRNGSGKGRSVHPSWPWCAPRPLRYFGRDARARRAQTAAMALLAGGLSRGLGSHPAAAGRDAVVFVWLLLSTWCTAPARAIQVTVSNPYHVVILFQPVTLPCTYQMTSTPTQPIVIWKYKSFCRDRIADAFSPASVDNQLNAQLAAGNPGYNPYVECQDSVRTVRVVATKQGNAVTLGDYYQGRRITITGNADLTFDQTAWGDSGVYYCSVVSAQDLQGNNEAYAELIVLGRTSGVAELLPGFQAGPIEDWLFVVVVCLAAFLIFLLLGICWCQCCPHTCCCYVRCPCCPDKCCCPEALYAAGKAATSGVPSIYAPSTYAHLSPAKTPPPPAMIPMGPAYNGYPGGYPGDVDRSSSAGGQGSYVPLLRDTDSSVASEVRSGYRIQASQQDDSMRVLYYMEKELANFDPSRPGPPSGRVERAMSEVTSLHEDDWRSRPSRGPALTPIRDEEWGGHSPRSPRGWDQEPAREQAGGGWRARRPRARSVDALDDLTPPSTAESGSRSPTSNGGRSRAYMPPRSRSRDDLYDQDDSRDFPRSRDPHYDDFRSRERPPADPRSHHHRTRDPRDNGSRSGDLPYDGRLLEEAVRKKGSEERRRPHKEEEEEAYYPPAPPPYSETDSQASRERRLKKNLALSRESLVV
Procedure: A fraction containing LVPs with a density of between 1.025 g/ml and 1.055 g/ml was obtained from an HCV-positive serum as described in example 1.
The amount of proteins present in the LVP fraction was determined by the Lowry method using the “Protein Assay” kit (Sigma Diagnostics) and the viral titer was evaluated by quantification of the HCV RNA by RT-PCR and real-time fluorescence detection (LightCycler™, Roche) (Wittwer et al., Biotechniques, 22: 176-181 (1997)).
The PLC/PRF/5 cell line, described in example 2 and cultured in DMEM medium-10% SVF, was used for studying the attachment of LVPs to the LSR receptor in the presence or absence of oleate.
The results were obtained according to the following protocol:
The PLC/PRF/5 cells were seeded at 1 million cells/well, so as to obtain, after incubation for 24 hours at 37° C., 5% CO2, approximately 80% confluence.
Two washes in cold 1×PBS buffer were carried out, and then 1 ml of cold complete DMEM medium containing 0.2% of BSA is added to the PLC cells maintained on a bed of ice.
The LVP fraction (i.e. 10 mg of proteins and 1.7×10^6 of copies of HCV RNA) is added to the cells in the presence or absence of 0.5 mM oleate. […]
An incubation was carried out at +4° C. for a period of time ranging from 1 to 9 hours. […] The RNAs were then purified using this same kit and analyzed by quantitative RT-PCR (LightCycler™). […]

Row | Compound | HCV viremia and hepatic cytolysis (HCV) | pathway for endocytosis of the LVPs at the time of the infection (hepatitis C virus; LVP fractions with densities <1.0063, 1.0063-1.063 and >1.063 g/ml) | presence of the HCV genome in the culture supernatants (hepatitis C virus; infection with 100 μl of serum of patients no. 1 and no. 2, with vs without 0.5 mM oleic acid) | attachment of the LVPs to the LSR receptor (number of HCV RNA copies) (LSR receptor)
1 | CC(C)c1nc(CN(C)C(=O)N[C@H](C(=O)N[C@@H](Cc2ccccc2)C[C@H](O)[C@H](Cc2ccccc2)NC(=O)OCc2cncs2)C(C)C)cs1 [Ritonavir] | increase in the HCV virema associated with hepatic cytolysis | – | – | –
2 | CCCCCCCC/C=C\CCCCCCCC(=O)O [oleic acid] | – | facilitates the pathway for endocytosis of the LVPs | detected at a higher frequency | significantly increased
